Key:
AXL kinase = target: T1, AXL kinase (Homo sapiens, UniProt P30530); assay: Inhibitory activity of compound against AXL kinase (HTRF KinEASE); assay type: biochemical; details: AXL enzyme (Carna, 08-107), ATP 15 μM; "<" means below detection limit of the test
T1 construct: purchased Carna 08-107
T1 sequence (P30530 473-894 limits assumed): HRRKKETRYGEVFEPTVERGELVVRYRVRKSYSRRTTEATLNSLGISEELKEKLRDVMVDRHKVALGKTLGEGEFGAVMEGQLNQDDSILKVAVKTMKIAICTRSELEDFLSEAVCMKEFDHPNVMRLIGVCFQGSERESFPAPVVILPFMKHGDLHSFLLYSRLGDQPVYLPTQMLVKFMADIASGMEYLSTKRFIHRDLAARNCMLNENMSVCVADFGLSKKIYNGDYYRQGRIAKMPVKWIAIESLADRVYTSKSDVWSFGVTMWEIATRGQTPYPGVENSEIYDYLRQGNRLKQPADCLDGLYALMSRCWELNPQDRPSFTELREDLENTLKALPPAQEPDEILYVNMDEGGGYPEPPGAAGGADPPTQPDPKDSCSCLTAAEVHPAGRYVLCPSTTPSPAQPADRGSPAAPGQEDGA
In short: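 AXL enzyme (final 0.016 ng/uL) was preincubated with compound (8 concentrations from 1 μM, ½ log steps) for 15 min at room temperature, then reacted with TK Substrate 3-biotin (final 1) and ATP (final 15 μM) for 45 min at 25° C. Phosphorylation was read by HTRF (TK antibody-cryptate, streptavidin-XL665, 1 h); IC50 from variable-slope dose-response fit.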

[1] = tested on: MV-4-11 (human myeloid monocytic leukemia cell line); assay: Proliferation inhibition activity of compounds to MV-4-11 cells (CellTiter-Glo); assay type: cell-based; details: MV4-11 cells, 72 h dosing
In short: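 MV-4-11 cells, plated 24 h earlier, were exposed 72 h to compounds in 10-point 3-fold dilutions (0.5% DMSO final). Viability read by CellTiter-Glo luminescence; inhibition normalized to blank and untreated controls, IC50 from variable-slope log(inhibitor)-response fit.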

| SMILES | IC50 (AXL kinase) | IC50 [1] |
| --- | --- | --- |
| CP(C)(=O)c1ccccc1Nc1nc(Nc2ccc3c(c2)CC[C@@H](N2CCCC2)CC3)ncc1Cl [Example 10, (S)-(2-((5-chloro-2-((7-(pyrrolidin-1-yl)-6,7,8,9-tetrahydro-5H-benzo[7]annulen-2-yl)amino)pyrimidin-4-yl)amino)phenyl)dimethyl phosphine oxide] | 2.35 nM | 5.49 nM |
| CNC(=O)c1cc(F)ccc1Nc1nc(Nc2ccc3c(c2)CC[C@@H](N2CCCC2)CC3)ncc1Cl [Example 19, (S)-2-((5-chloro-2-((7-(pyrrolidin-1-yl)-6,7,8,9-tetrahydro-5H-benzo[7]annulen-2-yl)amino)pyrimidin-4-yl)amino)-5-fluoro-N-methylhenzamide] | 0.11 nM | 1.6 nM |
| CP(C)(=O)c1c(Nc2nc(Nc3ccc4c(c3)CC[C@@H](N3CCCC3)CC4)ncc2Cl)ccc2nccnc12 [Example 47, (S)-(6-((5-chloro-2-((7-(pyrrolidin-1-yl)-6,7,8,9-tetrahydro-5H-benzo[7]annulen-2-yl)amino)pyrimidin-4-yl)amino)quinoxalin-5-yl)dimethyl phosphine oxide] | 1.72 nM | 5.24 nM |
| Cc1ccc(Nc2nc(Nc3ccc4c(c3)CC[C@@H](N3CCCC3)CC4)ncc2Cl)c(P(C)(C)=O)c1 [Example 53, (S)-(2-((5-chloro-2-((7-(pyrrolidin-1-yl)-6,7,8,9-tetrahydro-5H-benzo[7]annulen-2-yl)amino)pyrimidin-4-yl)amino)-5-methylphenyl) dimethyl phosphine oxide] | 1.86 nM | 6.61 nM |
| COCc1ccc(Nc2nc(Nc3ccc4c(c3)CC[C@@H](N3CCCC3)CC4)ncc2Cl)c(P(C)(C)=O)c1 [Example 115, (S)-(2-((5-chloro-2-((7-(pyrrolidin-1-yl)-6,7,8,9-tetrahydro-5H-benzo[7]annulen-2-yl)amino)pyrimidin-4-yl)amino)-5-(methoxymethyl)phenyl)dimethylphosphine oxide] | 4.89 nM | 6.97 nM |

Reference: US20230227484A1, “PYRIMIDINE COMPOUND AS AXL INHIBITOR” (NANJING CHIA TAI TIANQING PHARMACEUTICAL CO., LTD., priority 2020, published 2023)
